pIC50: −log10 of the molar value.
Test system: Plasmodium berghei
Experiment: Luciferase/luciferin-expressing antifolate-resistant parasites were used to infect a culture of HepG2 cells that were pre-incubated with compounds. Infected hepatocytes emit light due to the luciferase reaction. Assay results are presented as the percent inhibition of light emission compared to control. […]
Format: functional
Settings: sporozoite; for IC90: read-out: LUCIFERASE INFECTION ASSAY - IC90
[1] = read-out: LUCIFERASE INFECTION ASSAY - IC50

| Compound | IC90 | also measured |
| --- | --- | --- |
| NC(CCc1ccccc1)c1csc(NC(=O)Nc2cccc3ccccc23)n1 (stereo not given) | > 8.2 µM | pIC50 [1]: 5.29 |
| O=C1C=CC(=O)N1c1ccc(Cl)cc1Br | 8.68 µM | pIC50 (FFLUC_HILL_SLOPE 1.45, FFLUC_R_SQUARED 0.668, PBLUC_HILL_SLOPE 3.96, PBLUC_R_SQUARED 0.503, read-out: LUCIFERASE INFECTION ASSAY - IC50): 5.30 |
| O=C(c1ccccc1)N1[C@@H]2CC[C@@H](C2)[C@H]1c1nc2cccc(OCc3ccccc3)c2[nH]1 | > 10 µM | pIC50 (PBLUC_HILL_SLOPE 2.24, PBLUC_R_SQUARED 0.373, read-out: LUCIFERASE INFECTION ASSAY - IC50): < 5.00 |
| CC(c1ccc(-n2cncn2)cc1)N(C)CC(=O)Nc1ccc(OC(F)(F)F)cc1 (stereo not given) | > 10 µM | pIC50 (PBLUC_HILL_SLOPE 12.9, PBLUC_R_SQUARED 0.556, read-out: LUCIFERASE INFECTION ASSAY - IC50): 5.01 |
| CCOC(=O)Cc1csc(SCC(=O)c2cc(C)n(-c3ccc4c(c3)OCO4)c2C)n1 | > 10 µM | pIC50 (PBLUC_HILL_SLOPE 1.81, PBLUC_R_SQUARED 0.311, read-out: LUCIFERASE INFECTION ASSAY - IC50): 5.33 |
| COc1ccc(-c2cc(NC(=O)c3cc(Cl)c(Cl)[nH]3)ccc2OC)cc1 | 4.33 µM | pIC50 [1]: 5.46 |
| N#CC(C(=O)CSc1nnc(-c2ccc(F)cc2)c2ccccc12)=C1Nc2ccccc2N1 | > 10 µM | pIC50 (FFLUC_HILL_SLOPE 12, FFLUC_R_SQUARED 0.136, read-out: LUCIFERASE INFECTION ASSAY - IC50): < 5.00 |
| N#CCCC(C#N)(c1ccc(F)cc1)c1cccc(F)c1C#N (stereo not given) | > 10.7 µM | pIC50 [1]: < 4.97 |
| O=C(Nc1nonc1-c1cccs1)c1sc2cccc(Cl)c2c1Cl | 4.63 µM | pIC50 [1]: 5.49 |
| Cc1cccc(N2CCN(C(=O)c3ccc4[nH]c(C)c(C)c4c3)CC2)c1C | 1.14 µM | pIC50 (FFLUC_HILL_SLOPE 18.8, FFLUC_R_SQUARED 0.39, HEPG2TOX_HILL_SLOPE 1.29, HEPG2TOX_R_SQUARED 0.937, PBLUC_HILL_SLOPE 10.9, PBLUC_R_SQUARED 0.355, read-out: LUCIFERASE INFECTION ASSAY - IC50): 6.03 |
| Cc1nc2c3c(C)c(C)n(Cc4ccccc4)c3ncn2n1 | > 11.3 µM | pIC50 (PBLUC_HILL_SLOPE 3.56, PBLUC_R_SQUARED 0.538, read-out: LUCIFERASE INFECTION ASSAY - IC50): 5.03 |
| CC(C)Nc1ccc(Nc2ccccc2)cc1 | 3.79 µM | pIC50 (HEPG2TOX_HILL_SLOPE 3.79, HEPG2TOX_R_SQUARED 0.984, PBLUC_HILL_SLOPE 20.8, PBLUC_R_SQUARED 0.712, read-out: LUCIFERASE INFECTION ASSAY - IC50): 5.47 |
| Cc1cccc(C)c1NC(=O)N1[C@@H]2CC[C@@H](C2)[C@H]1c1nc2cccc(OCc3ccc(F)cc3)c2[nH]1 | > 10 µM | pIC50 (PBLUC_HILL_SLOPE 4.64, PBLUC_R_SQUARED 0.011, read-out: LUCIFERASE INFECTION ASSAY - IC50): < 5.00 |
| Cc1cc(C)n(-c2nc(-c3ccccc3)cc(N3CCOCC3)n2)n1 | 6.26 µM | pIC50 (PBLUC_HILL_SLOPE 5.14, PBLUC_R_SQUARED 0.351, read-out: LUCIFERASE INFECTION ASSAY - IC50): 5.39 |
| CN(Cc1ccc(N2CCCCC2)cc1)C(=O)c1cc(-c2cccnc2)nc2ccccc12 | > 10 µM | pIC50 (HEPG2TOX_HILL_SLOPE 0.393, HEPG2TOX_R_SQUARED 0.924, PBLUC_HILL_SLOPE 2.39, PBLUC_R_SQUARED 0.338, read-out: LUCIFERASE INFECTION ASSAY - IC50): 5.36 |
| Cc1nc2cc3c(cc2n1CC(=O)N1CCN(c2ccccc2)CC1)OCCO3 | > 10 µM | pIC50 [1]: < 5.00 |
| O=C(c1cccs1)N1CCN(c2cc(C(F)(F)F)nc3ccccc23)CC1 | 3.33 µM | pIC50 (PBLUC_HILL_SLOPE 13.8, PBLUC_R_SQUARED 0.566, read-out: LUCIFERASE INFECTION ASSAY - IC50): 5.55 |
| CNc1nc2cnc(-c3ccc(F)c(Cl)c3)cc2n1Cc1ccc(OC)c(OC)c1 | 3.93 µM | pIC50 (PBLUC_HILL_SLOPE 1.59, PBLUC_R_SQUARED 0.826, read-out: LUCIFERASE INFECTION ASSAY - IC50): 6.00 |
| CC(C)c1ccc(Nc2nccc3nc(-c4cccc(C(F)(F)F)c4)[nH]c23)cc1 | > 10 µM | pIC50 (HEPG2TOX_HILL_SLOPE 8.02, HEPG2TOX_R_SQUARED 0.493, PBLUC_HILL_SLOPE 1.32, PBLUC_R_SQUARED 0.475, read-out: LUCIFERASE INFECTION ASSAY - IC50): 5.39 |
| Cc1nccc(-c2ccc(NC(=O)c3cc(S(=O)(=O)NCc4ccccc4)ccc3C)cc2)n1 | > 10 µM | pIC50 (PBLUC_HILL_SLOPE 8.64, PBLUC_R_SQUARED 0.681, read-out: LUCIFERASE INFECTION ASSAY - IC50): 5.08 |

| Compound | IC90 | also measured |
| --- | --- | --- |
| CN(C)CCCNc1cc(N(C)C)c(N)c2c1C(=O)c1ccccc1C2=O | > 9.01 µM | pIC50 (PBLUC_HILL_SLOPE 0.553, PBLUC_R_SQUARED 0.182, read-out: LUCIFERASE INFECTION ASSAY - IC50): < 5.05 |
| Cn1c(NCC2CC2)nc2cnc(-c3ccc4ccccc4c3)cc21 | 2.07 µM | pIC50 (FFLUC_HILL_SLOPE 1.05, FFLUC_R_SQUARED 0.583, HEPG2TOX_HILL_SLOPE 31.1, HEPG2TOX_R_SQUARED 0.421, PBLUC_HILL_SLOPE 0.605, PBLUC_R_SQUARED 0.735, read-out: LUCIFERASE INFECTION ASSAY - IC50): 7.26 |
| COc1ccc(C(=O)NN(C)c2nc3ccccc3nc2C(F)(F)F)cc1 | 4.32 µM | pIC50 (HEPG2TOX_HILL_SLOPE 1.65, HEPG2TOX_R_SQUARED 0.987, PBLUC_HILL_SLOPE 2.07, PBLUC_R_SQUARED 0.843, read-out: LUCIFERASE INFECTION ASSAY - IC50): 5.83 |
| CN(C)CCNC(=O)c1cccc(-c2cc(-c3ccc(-c4ccccc4)cc3F)cnc2N)c1 | > 7.26 µM | pIC50 (PBLUC_HILL_SLOPE 15.7, PBLUC_R_SQUARED 0.255, read-out: LUCIFERASE INFECTION ASSAY - IC50): < 5.14 |
| O=S(=O)(Nc1csc(C(F)(F)F)c1-c1ccccc1)c1cc(Cl)c(Cl)s1 | 6.91 µM | pIC50 (FFLUC_HILL_SLOPE 1.1, FFLUC_R_SQUARED 0.492, HEPG2TOX_HILL_SLOPE 2.51, HEPG2TOX_R_SQUARED 0.937, PBLUC_HILL_SLOPE 4.37, PBLUC_R_SQUARED 0.518, read-out: LUCIFERASE INFECTION ASSAY - IC50): 5.38 |
| N#CC(Cc1cccc([N+](=O)[O-])c1)(c1ccccc1)c1ccccc1 | > 10 µM | pIC50 (HEPG2TOX_HILL_SLOPE 5.53, HEPG2TOX_R_SQUARED 0.223, PBLUC_HILL_SLOPE 1.93, PBLUC_R_SQUARED 0.0999, read-out: LUCIFERASE INFECTION ASSAY - IC50): < 5.00 |
| OCc1ccc(-c2cnc3cnc(-c4cccs4)cn23)cc1 | 10.6 µM | pIC50 (PBLUC_HILL_SLOPE 16.2, PBLUC_R_SQUARED 0.35, read-out: LUCIFERASE INFECTION ASSAY - IC50): 5.03 |
| CN1CCN(c2ccc(-c3cn4c(-c5ccc6c(c5)OCO6)cnc4cn3)cn2)CC1 | > 7.96 µM | pIC50 (PBLUC_HILL_SLOPE 2.2, PBLUC_R_SQUARED 0.54, read-out: LUCIFERASE INFECTION ASSAY - IC50): 5.20 |
| CCOC(=O)c1c(C)nc(-c2ccco2)nc1SCc1ncc(-c2ccc(F)cc2)o1 | 3.58 µM | pIC50 (PBLUC_HILL_SLOPE 11.1, PBLUC_R_SQUARED 0.631, read-out: LUCIFERASE INFECTION ASSAY - IC50): 5.53 |
| c1ccc2c(c1)[nH]c1nc(SCc3cn4ccsc4n3)nnc12 | 1.85 µM | pIC50 (PBLUC_HILL_SLOPE 2.76, PBLUC_R_SQUARED 0.824, read-out: LUCIFERASE INFECTION ASSAY - IC50): 6.08 |
| CC(C)(C)c1cc(C(=O)Nc2cc(-c3cccs3)nn2-c2ccc(I)cc2)n(Cc2ccccc2)n1 | > 5.43 µM | pIC50 (PBLUC_HILL_SLOPE 1.99, PBLUC_R_SQUARED 0.0392, read-out: LUCIFERASE INFECTION ASSAY - IC50): 5.39 |
| CCOc1ccc(CN(C)c2cc(-c3ccccc3)c3ccccc3n2)cc1OC | > 10 µM | pIC50 [1]: < 5.00 |
| N#Cc1cccc(NC(=O)c2cc(-c3cccnc3)nc3c2cnn3Cc2ccccc2Cl)c1 | > 10 µM | pIC50 [1]: < 5.00 |
| CCCCCc1ccc(C(=O)Nc2nc3ccc(C)cn3c2C(=O)NCCCC)cc1 | > 7.85 µM | pIC50 (PBLUC_HILL_SLOPE 2.82, PBLUC_R_SQUARED 0.514, read-out: LUCIFERASE INFECTION ASSAY - IC50): 5.38 |
| CCOc1ccc(Oc2ccc(S(=O)(=O)N(C)C3CCN(CC)CC3)cc2)cc1 | > 10 µM | pIC50 [1]: < 5.00 |
| CCOc1ccc(-c2nc(CSc3nc(C)nc4sc5c(c34)CCCC5)cs2)cc1OC | > 10 µM | pIC50 (FFLUC_HILL_SLOPE 22.7, FFLUC_R_SQUARED 0.174, read-out: LUCIFERASE INFECTION ASSAY - IC50): < 5.00 |
| COc1cc(NC(=O)N2CCc3nc(Nc4cc(Cl)cc(Cl)c4)ncc3C2)cc(OC)c1OC | > 6.54 µM | pIC50 (PBLUC_HILL_SLOPE 1.96, PBLUC_R_SQUARED 0.41, read-out: LUCIFERASE INFECTION ASSAY - IC50): 5.45 |
| CCOc1ccc(C(C)=O)cc1CSc1nc2scc(-c3ccccc3)c2c(=O)n1C | > 10 µM | pIC50 (PBLUC_HILL_SLOPE 1.32, PBLUC_R_SQUARED 0.21, read-out: LUCIFERASE INFECTION ASSAY - IC50): < 5.00 |
| O=C(NNC(=O)c1cc2c(s1)CCCCC2)c1ccccn1 | 8.35 µM | pIC50 (PBLUC_HILL_SLOPE 4.79, PBLUC_R_SQUARED 0.138, read-out: LUCIFERASE INFECTION ASSAY - IC50): 5.28 |
| CS(=O)(=O)Nc1cccc(CNC(=O)c2cccc3c4c([nH]c23)CCCC4)c1 | > 10 µM | pIC50 (HEPG2TOX_HILL_SLOPE 8.62, HEPG2TOX_R_SQUARED 0.723, PBLUC_HILL_SLOPE 1.82, PBLUC_R_SQUARED 0.711, read-out: LUCIFERASE INFECTION ASSAY - IC50): 5.27 |
